According to ChEMBL document CHEMBL4507257, “Data for DCP probe ABT-100” (2021):

Tests used:
[1] = molecular target: RAF proto-oncogene serine/threonine-protein kinase (Homo sapiens) (UniProt P04049); conditions: Compound concentration 1000.0 nM
[2] = molecular target: Mitogen-activated protein kinase kinase kinase kinase 3 (Homo sapiens) (UniProt Q8IVH8); conditions: Compound concentration 1000.0 nM
[3] = molecular target: 5-hydroxytryptamine receptor 2B (Homo sapiens) (UniProt P41595); conditions: Compound concentration 10.0 uM
[4] = molecular target: TGF-beta receptor type-1 (Homo sapiens) (UniProt P36897); conditions: Compound concentration 1000.0 nM
[5] = molecular target: Glycogen synthase kinase-3 alpha (Homo sapiens) (UniProt P49840); conditions: Compound concentration 1000.0 nM
[6] = molecular target: Megakaryocyte-associated tyrosine-protein kinase (Homo sapiens) (UniProt P42679); conditions: Compound concentration 1000.0 nM
[7] = molecular target: 5-hydroxytryptamine receptor 2A (Homo sapiens) (UniProt P28223); conditions: Compound concentration 10.0 uM
[8] = molecular target: Vascular endothelial growth factor receptor 3 (Homo sapiens) (UniProt P35916); conditions: Compound concentration 1000.0 nM
[9] = molecular target: Sigma intracellular receptor 2 (Homo sapiens) (UniProt Q5BJF2); conditions: Compound concentration 10.0 uM
[10] = system: Receptor-type tyrosine-protein kinase FLT3 (Homo sapiens), P36888 [D835H]; conditions: Compound concentration 1000.0 nM
[11] = molecular target: Serine/threonine-protein kinase ICK (Homo sapiens) (UniProt Q9UPZ9); conditions: Compound concentration 1000.0 nM
[12] = molecular target: Serine/threonine-protein kinase 38 (Homo sapiens) (UniProt Q15208); conditions: Compound concentration 1000.0 nM
[13] = molecular target: Mitogen-activated protein kinase kinase kinase kinase 1 (Homo sapiens) (UniProt Q92918); conditions: Compound concentration 1000.0 nM
[14] = molecular target: Insulin receptor-related protein (Homo sapiens) (UniProt P14616); conditions: Compound concentration 1000.0 nM
[15] = molecular target: Dual specificity mitogen-activated protein kinase kinase 4 (Homo sapiens) (UniProt P45985); conditions: Compound concentration 1000.0 nM
[16] = molecular target: Serine/threonine-protein kinase NIM1 (Homo sapiens) (UniProt Q8IY84); conditions: Compound concentration 1000.0 nM
[17] = molecular target: Sodium-dependent serotonin transporter (Homo sapiens) (UniProt P31645); conditions: Compound concentration 10.0 uM
[18] = molecular target: Serine/threonine-protein kinase SBK1 (Homo sapiens) (UniProt Q52WX2); conditions: Compound concentration 1000.0 nM
Chain of Serine/threonine-protein kinase SBK1 (Homo sapiens) (Q52WX2 whole entry): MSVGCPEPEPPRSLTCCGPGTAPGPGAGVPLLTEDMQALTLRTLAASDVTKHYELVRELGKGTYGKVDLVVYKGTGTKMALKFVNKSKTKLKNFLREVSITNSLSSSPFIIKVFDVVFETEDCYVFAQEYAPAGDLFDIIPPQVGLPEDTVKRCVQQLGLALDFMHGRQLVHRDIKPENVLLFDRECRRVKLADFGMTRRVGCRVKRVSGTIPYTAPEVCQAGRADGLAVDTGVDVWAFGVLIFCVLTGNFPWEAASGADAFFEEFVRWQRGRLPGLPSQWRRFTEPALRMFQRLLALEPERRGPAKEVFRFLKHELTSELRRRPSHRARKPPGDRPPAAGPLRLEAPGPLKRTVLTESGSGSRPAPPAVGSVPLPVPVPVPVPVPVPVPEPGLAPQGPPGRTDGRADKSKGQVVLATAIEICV

[19] = molecular target: Serine/threonine-protein kinase RIO1 (Homo sapiens) (UniProt Q9BRS2); conditions: Compound concentration 1000.0 nM
[20] = molecular target: D(1A) dopamine receptor (Homo sapiens) (UniProt P21728); conditions: Compound concentration 10.0 uM
[21] = molecular target: Muscle, skeletal receptor tyrosine-protein kinase (Homo sapiens) (UniProt O15146); conditions: Compound concentration 1000.0 nM
Chain of Muscle, skeletal receptor tyrosine-protein kinase (Homo sapiens) (O15146 whole entry): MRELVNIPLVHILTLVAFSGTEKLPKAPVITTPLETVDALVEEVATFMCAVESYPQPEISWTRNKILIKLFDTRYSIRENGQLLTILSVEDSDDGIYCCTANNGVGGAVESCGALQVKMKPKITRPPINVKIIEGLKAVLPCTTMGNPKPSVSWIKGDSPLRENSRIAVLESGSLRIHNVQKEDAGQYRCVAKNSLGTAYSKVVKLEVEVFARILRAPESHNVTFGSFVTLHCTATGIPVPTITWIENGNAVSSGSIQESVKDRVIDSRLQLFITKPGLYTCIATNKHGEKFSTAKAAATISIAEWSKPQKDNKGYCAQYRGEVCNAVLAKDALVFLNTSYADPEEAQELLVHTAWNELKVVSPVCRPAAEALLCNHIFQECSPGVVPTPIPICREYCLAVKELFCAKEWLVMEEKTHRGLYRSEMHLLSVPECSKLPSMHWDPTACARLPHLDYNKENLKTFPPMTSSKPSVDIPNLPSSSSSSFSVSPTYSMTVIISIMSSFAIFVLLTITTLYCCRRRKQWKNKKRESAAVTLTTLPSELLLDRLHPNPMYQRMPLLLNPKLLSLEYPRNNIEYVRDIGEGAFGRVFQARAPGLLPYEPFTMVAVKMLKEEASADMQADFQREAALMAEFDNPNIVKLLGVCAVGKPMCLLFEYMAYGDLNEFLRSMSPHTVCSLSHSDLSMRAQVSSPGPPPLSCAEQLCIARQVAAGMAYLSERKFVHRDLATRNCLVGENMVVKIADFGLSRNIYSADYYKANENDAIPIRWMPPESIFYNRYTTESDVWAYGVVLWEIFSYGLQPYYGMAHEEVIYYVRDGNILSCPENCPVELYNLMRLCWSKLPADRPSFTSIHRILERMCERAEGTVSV

[22] = system: Proto-oncogene tyrosine-protein kinase receptor Ret (Homo sapiens), P07949 [V804M]; conditions: Compound concentration 1000.0 nM
[23] = molecular target: Serine/threonine-protein kinase PLK4 (Homo sapiens) (UniProt O00444); conditions: Compound concentration 1000.0 nM
[24] = system: Phosphatidylinositol 4,5-bisphosphate 3-kinase catalytic subunit alpha isoform (Homo sapiens), P42336 [E542K]; conditions: Compound concentration 1000.0 nM
[25] = molecular target: LIM domain kinase 2 (Homo sapiens) (UniProt P53671); conditions: Compound concentration 1000.0 nM
Chain of LIM domain kinase 2 (Homo sapiens) (P53671 whole entry, looked up, the tested form may be a part): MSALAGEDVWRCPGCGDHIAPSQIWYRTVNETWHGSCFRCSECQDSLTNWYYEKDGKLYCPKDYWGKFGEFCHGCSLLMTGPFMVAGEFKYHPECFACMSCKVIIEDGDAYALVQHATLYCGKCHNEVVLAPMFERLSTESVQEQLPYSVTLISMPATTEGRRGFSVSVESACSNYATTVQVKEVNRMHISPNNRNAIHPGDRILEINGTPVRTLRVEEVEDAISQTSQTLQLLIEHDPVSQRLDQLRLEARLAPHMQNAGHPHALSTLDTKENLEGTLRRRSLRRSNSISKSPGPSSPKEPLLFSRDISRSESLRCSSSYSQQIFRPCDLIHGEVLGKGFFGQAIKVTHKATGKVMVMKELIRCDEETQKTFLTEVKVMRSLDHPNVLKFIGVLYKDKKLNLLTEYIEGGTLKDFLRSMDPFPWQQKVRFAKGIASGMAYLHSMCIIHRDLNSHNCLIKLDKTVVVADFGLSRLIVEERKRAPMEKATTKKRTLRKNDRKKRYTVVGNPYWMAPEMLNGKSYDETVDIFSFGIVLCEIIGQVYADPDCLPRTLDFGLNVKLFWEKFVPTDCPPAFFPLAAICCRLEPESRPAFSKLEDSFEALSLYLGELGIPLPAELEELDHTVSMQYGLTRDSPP

[26] = molecular target: Serine/threonine-protein kinase D3 (Homo sapiens) (UniProt O94806); conditions: Compound concentration 1000.0 nM
[27] = molecular target: Calcium/calmodulin-dependent protein kinase type 1B (Homo sapiens, UniProt Q6P2M8); conditions: Compound concentration 1000.0 nM
[28] = molecular target: Serine/threonine-protein kinase PAK 5 (Homo sapiens) (UniProt Q9P286); conditions: Compound concentration 1000.0 nM
[29] = molecular target: Calcium-dependent protein kinase 1 (Plasmodium falciparum) (UniProt P62344); conditions: Compound concentration 1000.0 nM
Chain of Calcium-dependent protein kinase 1 (Plasmodium falciparum) (P62344 2-524 limits assumed): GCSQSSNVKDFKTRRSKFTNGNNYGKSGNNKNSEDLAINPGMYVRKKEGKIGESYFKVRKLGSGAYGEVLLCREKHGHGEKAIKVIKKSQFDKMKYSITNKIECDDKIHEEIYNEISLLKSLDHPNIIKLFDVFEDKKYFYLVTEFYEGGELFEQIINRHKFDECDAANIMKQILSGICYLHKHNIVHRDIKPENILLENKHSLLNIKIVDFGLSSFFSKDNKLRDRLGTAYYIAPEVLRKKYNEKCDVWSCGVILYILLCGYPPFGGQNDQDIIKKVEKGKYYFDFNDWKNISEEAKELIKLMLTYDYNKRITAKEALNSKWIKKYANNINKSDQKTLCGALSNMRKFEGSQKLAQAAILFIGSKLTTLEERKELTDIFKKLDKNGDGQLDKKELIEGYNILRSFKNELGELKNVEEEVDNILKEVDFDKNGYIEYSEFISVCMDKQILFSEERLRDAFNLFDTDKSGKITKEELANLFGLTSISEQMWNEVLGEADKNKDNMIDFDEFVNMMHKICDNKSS

[30] = system: Tyrosine-protein kinase ABL1 (Homo sapiens), P00519 [Q252H]; conditions: Compound concentration 1000.0 nM
Aurora kinase B = Aurora kinase B (Homo sapiens, UniProt Q96GD4); conditions: Compound concentration 1000.0 nM
Chain of Aurora kinase B (Q96GD4 whole entry): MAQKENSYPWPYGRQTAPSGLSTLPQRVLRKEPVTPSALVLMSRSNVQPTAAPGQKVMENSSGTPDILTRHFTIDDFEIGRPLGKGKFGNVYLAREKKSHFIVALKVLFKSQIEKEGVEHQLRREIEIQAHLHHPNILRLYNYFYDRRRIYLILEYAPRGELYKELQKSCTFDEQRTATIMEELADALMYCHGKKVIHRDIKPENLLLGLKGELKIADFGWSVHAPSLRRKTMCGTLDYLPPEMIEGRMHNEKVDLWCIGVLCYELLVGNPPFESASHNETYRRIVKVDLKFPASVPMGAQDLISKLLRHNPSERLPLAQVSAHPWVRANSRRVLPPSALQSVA

[31] = molecular target: Activin receptor type-1B (Homo sapiens) (UniProt P36896); conditions: Compound concentration 1000.0 nM
[32] = molecular target: Receptor-type tyrosine-protein kinase FLT3 (Homo sapiens) (UniProt P36888); conditions: Compound concentration 1000.0 nM
[33] = molecular target: Aurora kinase C (Homo sapiens) (UniProt Q9UQB9); conditions: Compound concentration 1000.0 nM
[34] = molecular target: Mitogen-activated protein kinase kinase kinase 4 (Homo sapiens) (UniProt Q9Y6R4); conditions: Compound concentration 1000.0 nM
[35] = molecular target: Dual specificity mitogen-activated protein kinase kinase 1 (Homo sapiens) (UniProt Q02750); conditions: Compound concentration 1000.0 nM
[36] = molecular target: Serine/threonine-protein kinase 35 (Homo sapiens) (UniProt Q8TDR2); conditions: Compound concentration 1000.0 nM
[37] = molecular target: Dual serine/threonine and tyrosine protein kinase (Homo sapiens) (UniProt Q6XUX3); conditions: Compound concentration 1000.0 nM
Chain of Dual serine/threonine and tyrosine protein kinase (Homo sapiens) (Q6XUX3 whole entry, canonical isoform): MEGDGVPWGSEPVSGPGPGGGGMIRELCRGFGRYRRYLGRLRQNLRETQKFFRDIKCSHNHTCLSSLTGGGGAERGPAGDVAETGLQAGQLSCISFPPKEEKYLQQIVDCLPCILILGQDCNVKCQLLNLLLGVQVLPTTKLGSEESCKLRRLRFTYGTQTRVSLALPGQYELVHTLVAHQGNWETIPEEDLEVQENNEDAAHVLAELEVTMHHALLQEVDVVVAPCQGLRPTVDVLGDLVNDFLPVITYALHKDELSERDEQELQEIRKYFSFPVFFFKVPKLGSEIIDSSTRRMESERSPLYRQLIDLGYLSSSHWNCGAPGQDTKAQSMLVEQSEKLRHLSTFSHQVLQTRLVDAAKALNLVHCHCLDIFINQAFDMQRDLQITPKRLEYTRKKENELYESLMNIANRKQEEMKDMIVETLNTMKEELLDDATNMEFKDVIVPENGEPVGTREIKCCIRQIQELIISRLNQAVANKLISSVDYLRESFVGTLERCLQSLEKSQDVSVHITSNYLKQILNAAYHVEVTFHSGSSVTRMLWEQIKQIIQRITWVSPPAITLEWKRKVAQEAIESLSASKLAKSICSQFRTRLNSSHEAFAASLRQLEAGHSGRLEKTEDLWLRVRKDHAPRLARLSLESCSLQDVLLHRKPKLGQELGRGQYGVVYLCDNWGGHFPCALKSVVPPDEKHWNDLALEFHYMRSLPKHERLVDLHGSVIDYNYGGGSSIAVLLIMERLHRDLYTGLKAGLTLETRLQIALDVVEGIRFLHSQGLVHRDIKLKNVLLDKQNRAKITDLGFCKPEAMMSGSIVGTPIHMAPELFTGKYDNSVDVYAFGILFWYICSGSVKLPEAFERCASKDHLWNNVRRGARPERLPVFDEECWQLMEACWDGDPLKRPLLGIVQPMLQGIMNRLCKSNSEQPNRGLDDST

[38] = molecular target: Phosphatidylinositol 4,5-bisphosphate 3-kinase catalytic subunit beta isoform (Homo sapiens) (UniProt P42338); conditions: Compound concentration 1000.0 nM
[39] = molecular target: Myosin light chain kinase, smooth muscle (Homo sapiens) (UniProt Q15746); conditions: Compound concentration 1000.0 nM
[40] = molecular target: Calcium/calmodulin-dependent protein kinase kinase 1 (Homo sapiens) (UniProt Q8N5S9); conditions: Compound concentration 1000.0 nM
Chain of Calcium/calmodulin-dependent protein kinase kinase 1 (Homo sapiens) (Q8N5S9 whole entry, looked up): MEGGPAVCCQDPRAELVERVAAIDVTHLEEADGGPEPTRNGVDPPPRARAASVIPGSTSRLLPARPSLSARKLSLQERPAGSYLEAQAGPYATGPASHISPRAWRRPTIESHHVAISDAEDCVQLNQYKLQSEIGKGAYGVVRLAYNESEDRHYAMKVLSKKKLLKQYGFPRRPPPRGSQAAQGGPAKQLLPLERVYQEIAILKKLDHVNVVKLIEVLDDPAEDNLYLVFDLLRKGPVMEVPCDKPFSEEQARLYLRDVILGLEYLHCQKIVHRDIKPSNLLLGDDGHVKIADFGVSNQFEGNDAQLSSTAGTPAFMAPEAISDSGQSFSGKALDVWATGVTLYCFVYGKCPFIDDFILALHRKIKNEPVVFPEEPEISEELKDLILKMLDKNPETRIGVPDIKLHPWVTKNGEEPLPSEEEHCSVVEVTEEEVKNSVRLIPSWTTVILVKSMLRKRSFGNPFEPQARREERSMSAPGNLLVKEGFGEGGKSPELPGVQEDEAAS

[41] = molecular target: Phosphatidylinositol 4-kinase beta (Homo sapiens) (UniProt Q9UBF8); conditions: Compound concentration 1000.0 nM
[42] = molecular target: Peripheral plasma membrane protein CASK (Homo sapiens) (UniProt O14936); conditions: Compound concentration 1000.0 nM
[43] = molecular target: cGMP-dependent protein kinase 1 (Homo sapiens) (UniProt Q13976); conditions: Compound concentration 1000.0 nM
Rattus norvegicus = species on record: Rattus norvegicus; conditions: Compound concentration 10.0 uM
[44] = molecular target: Cyclin-dependent kinase-like 2 (Homo sapiens) (UniProt Q92772); conditions: Compound concentration 1000.0 nM

Chain of RAF proto-oncogene serine/threonine-protein kinase (Homo sapiens) (P04049 whole entry): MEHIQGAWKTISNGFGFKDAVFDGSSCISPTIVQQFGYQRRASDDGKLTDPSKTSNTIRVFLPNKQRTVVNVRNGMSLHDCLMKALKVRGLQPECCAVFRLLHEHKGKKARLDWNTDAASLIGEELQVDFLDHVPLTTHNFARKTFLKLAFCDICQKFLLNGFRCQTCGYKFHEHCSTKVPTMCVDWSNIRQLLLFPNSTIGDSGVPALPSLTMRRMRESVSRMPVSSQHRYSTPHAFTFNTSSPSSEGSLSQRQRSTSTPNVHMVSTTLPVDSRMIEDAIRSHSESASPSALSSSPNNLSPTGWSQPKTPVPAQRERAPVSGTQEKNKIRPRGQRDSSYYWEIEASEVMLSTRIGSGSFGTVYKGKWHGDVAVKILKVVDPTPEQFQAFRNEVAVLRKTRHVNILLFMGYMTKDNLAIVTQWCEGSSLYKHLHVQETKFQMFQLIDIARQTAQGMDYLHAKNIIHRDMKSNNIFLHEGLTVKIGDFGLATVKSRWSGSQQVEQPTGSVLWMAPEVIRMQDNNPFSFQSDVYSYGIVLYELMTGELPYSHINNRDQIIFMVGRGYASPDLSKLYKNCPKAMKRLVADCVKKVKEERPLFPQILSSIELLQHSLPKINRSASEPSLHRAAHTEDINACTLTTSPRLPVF

Cn1cncc1[C@@](O)(COc1ccc(C#N)cc1-c1ccc(OC(F)(F)F)cc1)c1ccc(C#N)cc1 [A-108]
inactive: residual activity [1] 85% | residual activity [2] 100% | inhibition [3] 18.6% | residual activity [4] 78% | residual activity [5] 100% | residual activity [6] 100% | inhibition [7] -4.18% | residual activity [8] 90% | inhibition [9] 37.8% | residual activity [10] 67% | residual activity [11] 75% | residual activity [12] 100% | residual activity [13] 100% | residual activity [14] 96% | residual activity [15] 100% | residual activity [16] 97% | inhibition [17] -7.91% | residual activity [18] 100% | residual activity [19] 100% | inhibition [20] 19% | residual activity [21] 100% | residual activity [22] 98% | residual activity [23] 84% | residual activity [24] 81% | residual activity [25] 82% | residual activity [26] 98% | residual activity [27] 100% | residual activity [28] 100% | residual activity [29] 75% | residual activity [30] 84% | residual activity (Aurora kinase B) 100% | residual activity [31] 100% | residual activity [32] 100% | residual activity [33] 90% | residual activity [34] 80% | residual activity [35] 89% | residual activity [36] 100% | residual activity [37] 100% | residual activity [38] 75% | residual activity [39] 99% | residual activity [40] 100% | residual activity [41] 80% | residual activity [42] 92% | residual activity [43] 94% | inhibition (Rattus norvegicus) 9.56% | residual activity [44] 93%

Cn1cncc1[C@](O)(COc1ccc(C#N)cc1-c1ccc(OC(F)(F)F)cc1)c1ccc(C#N)cc1 [ABT-100]
inactive: residual activity [1] 100% | residual activity [2] 100% | inhibition [3] -5.75% | residual activity [4] 81% | residual activity [5] 62% | residual activity [6] 98% | inhibition [7] -0.429% | residual activity [8] 77% | inhibition [9] 40.3% | residual activity [10] 84% | residual activity [11] 100% | residual activity [12] 75% | residual activity [13] 100% | residual activity [14] 93% | residual activity [15] 89% | residual activity [16] 87% | inhibition [17] 1.25% | residual activity [18] 100% | residual activity [19] 72% | inhibition [20] 4.35% | residual activity [21] 93% | residual activity [22] 99% | residual activity [23] 94% | residual activity [24] 80% | residual activity [25] 72% | residual activity [26] 100% | residual activity [27] 60% | residual activity [28] 94% | residual activity [29] 88% | residual activity [30] 100% | residual activity (Aurora kinase B) 100% | residual activity [31] 87% | residual activity [32] 100% | residual activity [33] 100% | residual activity [34] 90% | residual activity [35] 100% | residual activity [36] 100% | residual activity [37] 90% | residual activity [38] 96% | residual activity [39] 88% | residual activity [40] 77% | residual activity [41] 94% | residual activity [42] 83% | residual activity [43] 91% | inhibition (Rattus norvegicus) -1.86% | residual activity [44] 88%
